Assay results published in patent US20260262643A1, “HERBICIDAL BENZOXAZINES” (FMC CORPORATION, priority 2022, published 2026).
Read-outs that look alike come from different tables or passages of the source.

Key:
galium = assay: Test A postemergence; assay type: in vivo, Galium aparine; settings: Galium, post-emergence, 240 h, postemergence, 10 days, 0 to 100 scale (0 no effect, 100 complete control); for pest or weed control at 125 g/ha: 125 g ai/ha; for pest or weed control at 500 g/ha: 500 g ai/ha
Summary of the method: (§1)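 Greenhouse pot test, 10 days. Compound (non-phytotoxic solvent, surfactant) sprayed on soil at seeding or on seedlings at one- to two-leaf stage. Visual injury rated 0–100 against untreated plants.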

ducksalad = assay: Test B flooded paddy test; assay type: in vivo, Heteranthera limosa; settings: Heteranthera limosa, 312 h, 250 g ai/ha, Flood, 13 days, 0 to 100 scale (0 no effect, 100 complete control); read-out: Plant response rating, Ducksalad
Summary of the method: (§2)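 Percent weed or crop control, judged by eye on a 0–100 scale 13 days post-treatment, reflects compound added to a 3 cm flood maintained over 2-leaf plants in the greenhouse. Missing entries are marked with a dash.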

ragweed = assay: Test A preemergence; assay type: in vivo, Ambrosia artemisiifolia; settings: Ambrosia artemisiifolia, pre-emergence, 240 h, read-out: Plant response rating, Ragweed; for pest or weed control at 125 g/ha: 125 g ai/ha; for pest or weed control at 500 g/ha: 500 g ai/ha
Summary of the method: as §1

corn [1] = assay: Test A preemergence; assay type: in vivo, Zea mays; settings: Zea mays, pre-emergence, 240 h; for Corn plant response rating (crop injury, 0 = no effect, 100 = complete kill) at 125 g/ha: 125 g ai/ha; for Corn plant response rating (crop injury, 0 = no effect, 100 = complete kill) at 500 g/ha: 500 g ai/ha
Summary of the method: as §1

soybean = assay: Test A postemergence; assay type: in vivo, Glycine max; settings: Glycine max, post-emergence, 240 h, postemergence, 10 days, 0 to 100 scale (0 no effect, 100 complete control); for plant injury at 125 g/ha: 125 g ai/ha, read-out: Soybean plant response rating; for plant injury at 500 g/ha: 500 g ai/ha, visual injury, read-out: Plant response rating, Soybean
Summary of the method: as §1

barnyardgrass = assay: Test B flooded paddy test; assay type: in vivo, Echinochloa crus-galli; settings: Echinochloa crus-galli, 312 h, 250 g ai/ha, Flood, 13 days, 0 to 100 scale (0 no effect, 100 complete control); read-out: Plant response rating, Barnyardgrass
Summary of the method: as §2

wheat [2] = assay: Test A postemergence; assay type: in vivo, Triticum aestivum; settings: Triticum aestivum, post-emergence, 240 h, postemergence, 10 days, 0 to 100 scale (0 no effect, 100 complete control); for plant injury at 125 g/ha: 125 g ai/ha, read-out: Wheat plant response rating; for plant injury at 500 g/ha: 500 g ai/ha, visual injury, read-out: Plant response rating, Wheat
Summary of the method: as §1

ryegrass, Italian = assay: Test A postemergence; assay type: in vivo, Lolium multiflorum; settings: Lolium multiflorum, post-emergence, 240 h, postemergence, 10 days, 0 to 100 scale (0 no effect, 100 complete control); for pest or weed control at 125 g/ha: 125 g ai/ha, read-out: Ryegrass, Italian plant response rating; for pest or weed control at 500 g/ha: 500 g ai/ha, visual injury, read-out: Plant response rating, Ryegrass, Italian
Summary of the method: as §1

foxtail, giant [3] = assay: Test A postemergence; assay type: in vivo, Setaria faberi; settings: Setaria faberi, post-emergence, 240 h, postemergence, 10 days, 0 to 100 scale (0 no effect, 100 complete control); for pest or weed control at 125 g/ha: 125 g ai/ha; for pest or weed control at 500 g/ha: 500 g ai/ha
Summary of the method: as §1

foxtail, giant [4] = assay: Test A preemergence; assay type: in vivo, Setaria faberi; settings: Setaria faberi, pre-emergence, 240 h, read-out: Plant response rating, Foxtail, Giant; for pest or weed control at 125 g/ha: 125 g ai/ha; for pest or weed control at 500 g/ha: 500 g ai/ha
Summary of the method: as §1

rice = assay: Test B flooded paddy test; assay type: in vivo, Oryza sativa; settings: Oryza sativa, 312 h; 250 g ai/ha, Flood, 13 days, 0 to 100 scale (0 no effect, 100 complete control); read-out: Plant response rating, Rice
Summary of the method: as §2

wheat [5] = assay: Test A preemergence; assay type: in vivo, Triticum aestivum; settings: Triticum aestivum, pre-emergence, 240 h, read-out: Plant response rating, Wheat; for plant injury at 125 g/ha: 125 g ai/ha; for plant injury at 500 g/ha: 500 g ai/ha
Summary of the method: as §1

corn [6] = assay: Test A postemergence; assay type: in vivo, Zea mays; settings: Zea mays, post-emergence, 240 h, postemergence, 10 days, 0 to 100 scale (0 no effect, 100 complete control); for plant injury at 125 g/ha: read-out: Corn plant response rating; for Corn plant response rating (crop injury, 0 = no effect, 100 = complete kill) at 500 g/ha: 500 g ai/ha
Summary of the method: as §1

kochia = assay: Test A postemergence; assay type: in vivo, Bassia scoparia; settings: Bassia scoparia, post-emergence, 240 h, postemergence, 10 days, 0 to 100 scale (0 no effect, 100 complete control); for pest or weed control at 125 g/ha: 125 g ai/ha; for pest or weed control at 500 g/ha: 500 g ai/ha
Summary of the method: as §1

oat, wild = assay: Test A preemergence; assay type: in vivo, Avena fatua; settings: Avena fatua, pre-emergence, 240 h, read-out: Plant response rating, Oat, Wild
Summary of the method: as §1

[7] = visual injury, read-out: Plant response rating, Galium
[8] = visual injury after 10 days, 0 to 100 scale, 0 is no effect, 100 is complete control
[9] = read-out: Foxtail, Giant plant response rating
[10] = visual injury, read-out: Plant response rating, Foxtail, Giant
[11] = read-out: Kochia plant response rating
[12] = visual injury, read-out: Plant response rating, Kochia
[13] = 0 to 100 scale (0 no effect, 100 complete control), 10 days

SMILES: Cc1ccc(-n2ncnc2C)cc1C(=O)N1C[C@H](C)Oc2c(Cl)cccc21 (single isomer, unassigned) [Compound 126]
- pest or weed control at 125 g/ha (galium; read-out: Galium plant response rating): 50%
- pest or weed control at 500 g/ha (galium; [7]): 70%
- pest or weed control at 250 g/ha (ducksalad): 0%
- pest or weed control at 125 g/ha (ragweed; [8]): 0%
- pest or weed control at 500 g/ha (ragweed; [8]): 0%
- Corn plant response rating (crop injury, 0 = no effect, 100 = complete kill) at 125 g/ha (corn [1]; [8]): 0%
- Corn plant response rating (crop injury, 0 = no effect, 100 = complete kill) at 500 g/ha (corn [1]; [8]): 40%
- plant injury at 125 g/ha (soybean): 40%
- plant injury at 500 g/ha (soybean): 60%
- pest or weed control at 250 g/ha (barnyardgrass): 0%
- plant injury at 125 g/ha (wheat [2]): 0%
- plant injury at 500 g/ha (wheat [2]): 30%
- pest or weed control at 125 g/ha (ryegrass, Italian): 0%
- pest or weed control at 500 g/ha (ryegrass, Italian): 50%
- pest or weed control at 125 g/ha (foxtail, giant [3]; [9]): 0%
- pest or weed control at 500 g/ha (foxtail, giant [3]; [10]): 70%
- pest or weed control at 125 g/ha (foxtail, giant [4]; [8]): 60%
- pest or weed control at 500 g/ha (foxtail, giant [4]; [8]): 100%
- plant injury at 250 g/ha (rice): 0%
- plant injury at 125 g/ha (wheat [5]; [8]): 0%
- plant injury at 500 g/ha (wheat [5]; [8]): 30%
- plant injury at 125 g/ha (corn [6]; 125 g ai/ha): 0%
- Corn plant response rating (crop injury, 0 = no effect, 100 = complete kill) at 500 g/ha (corn [6]; visual injury): 10%
- pest or weed control at 125 g/ha (kochia; [11]): 10%
- pest or weed control at 500 g/ha (kochia; [12]): 20%

SMILES: Cc1ccc(-n2cnc(C(C)(C)C)n2)cc1C(=O)N1C[C@H](C)Oc2c(Cl)cccc21 [Compound 76, [(2S)-8-Chloro-2,3-dihydro-2-methyl-4H-1,4-benzoxazin-4-yl][5-[3-(1,1-dimethylethyl)-1H-1,2,4-triazol-1-yl]-2-methylphenyl]methanone]
- pest or weed control at 125 g/ha (galium; [7]): 100%
- pest or weed control at 500 g/ha (galium; [7]): 100%
- pest or weed control at 250 g/ha (ducksalad): 20%
- pest or weed control at 125 g/ha (ragweed; [8]): 30%
- pest or weed control at 500 g/ha (ragweed; [13]): 30%
- Corn plant response rating (crop injury, 0 = no effect, 100 = complete kill) at 125 g/ha (corn [1]; [8]): 40%
- Corn plant response rating (crop injury, 0 = no effect, 100 = complete kill) at 500 g/ha (corn [1]; [13]): 50%
- plant injury at 500 g/ha (soybean): 100%
- pest or weed control at 250 g/ha (barnyardgrass): 25%
- plant injury at 500 g/ha (wheat [2]): 40%
- pest or weed control at 500 g/ha (ryegrass, Italian): 80%
- pest or weed control at 125 g/ha (foxtail, giant [3]; [10]): 90%
- pest or weed control at 500 g/ha (foxtail, giant [3]; [10]): 90%
- pest or weed control at 125 g/ha (foxtail, giant [4]; [8]): 90%
- pest or weed control at 500 g/ha (foxtail, giant [4]; [13]): 100%
- plant injury at 250 g/ha (rice): 0%
- plant injury at 125 g/ha (wheat [5]; [8]): 60%
- plant injury at 500 g/ha (wheat [5]; [13]): 90%
- Corn plant response rating (crop injury, 0 = no effect, 100 = complete kill) at 125 g/ha (corn [6]; 125 g ai/ha, visual injury): 60%
- Corn plant response rating (crop injury, 0 = no effect, 100 = complete kill) at 500 g/ha (corn [6]; visual injury): 60%
- pest or weed control at 125 g/ha (kochia; [12]): 90%
- pest or weed control at 500 g/ha (kochia; [12]): 90%

SMILES: Cc1cccc2c1O[C@@H](C)CN2C(=O)c1cccc(-n2cnc(C3CCCC3)n2)c1 [Compound 80, [3-(3-Cyclopentyl-1H-1,2,4-triazol-1-yl)phenyl][(2S)-2,3-dihydro-2,8-dimethyl-4H-1,4-benzoxazin-4-yl]methanone]
- pest or weed control at 250 g/ha (ducksalad): 0%
- pest or weed control at 125 g/ha (ragweed; [8]): 0%
- pest or weed control at 500 g/ha (ragweed; [13]): 0%
- Corn plant response rating (crop injury, 0 = no effect, 100 = complete kill) at 125 g/ha (corn [1]; [8]): 0%
- Corn plant response rating (crop injury, 0 = no effect, 100 = complete kill) at 500 g/ha (corn [1]; [13]): 20%
- pest or weed control at 125 g/ha (oat, wild; 125 g ai/ha, visual injury after 10 days, 0 to 100 scale, 0 is no effect, 100 is complete control): 0%
- pest or weed control at 500 g/ha (oat, wild; 500 g ai/ha, 0 to 100 scale (0 no effect, 100 complete control), 10 days): 10%
- plant injury at 125 g/ha (soybean): 70%
- plant injury at 500 g/ha (soybean): 100%
- pest or weed control at 250 g/ha (barnyardgrass): 0%
- plant injury at 125 g/ha (wheat [2]): 10%
- plant injury at 500 g/ha (wheat [2]): 10%
- pest or weed control at 125 g/ha (ryegrass, Italian): 20%
- pest or weed control at 500 g/ha (ryegrass, Italian): 70%
- pest or weed control at 125 g/ha (foxtail, giant [3]; [9]): 10%
- pest or weed control at 500 g/ha (foxtail, giant [3]; [10]): 50%
- pest or weed control at 125 g/ha (foxtail, giant [4]; [8]): 20%
- pest or weed control at 500 g/ha (foxtail, giant [4]; [13]): 80%
- plant injury at 250 g/ha (rice): 0%
- plant injury at 125 g/ha (wheat [5]; [8]): 0%
- plant injury at 500 g/ha (wheat [5]; [13]): 10%
- plant injury at 125 g/ha (corn [6]; 125 g ai/ha): 10%
- Corn plant response rating (crop injury, 0 = no effect, 100 = complete kill) at 500 g/ha (corn [6]; visual injury): 20%
- pest or weed control at 125 g/ha (kochia; [11]): 40%
- pest or weed control at 500 g/ha (kochia; [12]): 70%
